Values belong to the compound of their own block, whether it stands above or below them.
How the values were obtained:
[1] = system: Nerve cells of the cerebral cortex; test: Pharmacological test 1: neurite sprouting (NS) of cultured fetal rat cerebral cortex nerve cells, phase contrast microscopy versus control; type: cell-based; parameters: key: ++: extremely strong in comparison with the control; +: strong in comparison with the control; ±: same as the control; -: inferior to the control; details: 10 days after initiation of culture
Text: Nerve cells of the cerebral cortex were removed aseptically from a fetal rat (17 days-old) and cultured according to a Asou's method [Asou, H. Brain Res., 332; pages 355-357 (1985)]. After the meninx, blood vessel, etc. were removed from the cerebral hemisphere, they were put through a stainless steel mesh (pore size: 140μm). Then, the isolated cells were floated on a culture medium (Eagle's basal medium containing 10% fetal bovine serum and glucose of 1 g/l) and 1.5×10^6 cells were respectively seeded on a dish (diameter: 35 mm) coated with poly-L-lysine to initiate the culture (37° C., 3% CO2). After 24 hours, the culture medium was replaced by a culture medium containing a test compound and cultured for additional 9 days.
10 Days after initiation of the culture, neurite sprouting (NS) was evaluated under phase contrast microscopy by comparing with the control group.

[2] = system: mouse dorsal root ganglion cells; test: Pharmacological Test 2: neurite outgrowth in primary culture of mouse dorsal root ganglion cells; type: cell-based, mouse (C57BL/6); parameters: key: +: positive; ±: false positive; -: negative; details: 7 days culture
Method: (The measurement of neurite outgrowth in primary culture of mouse dorsal root ganglion cells)
Preparation of cells was conducted according to a method of Horie et al. [H. Horie., FEBS, 296, 23 (1990)]. That is, C57BL/6 male mice aged 10 to 15 weeks were used. They were bleeded to death under ether anesthetization and the backbone from cervical vertebra to sacral vertebra was removed. The capsule of dorsal root ganglion of which ventral root and dorsal root had been cut was stripped in a Ham F12 medium (Flow laboratories) and then ganglia were treated with 0.25% collagenase (Worthington Biochemical Corporation) at 37° C. for 90 minutes. The medium was replaced by a Hank's physiological buffer solution containing no calcium and magnesium and cells were treated with 0.25% trypsin (Flow Laboratories) at room temperature for 20 minutes. A trypsin inhibitor (Sigma, 100 μg/ml) was added to terminate the enzyme reaction and trituration was conducted 20 times using a tapered Pasteur pipette. The medium was replaced again by the Ham F12 medium and cells were put through a nylon mesh (150 μm) to remove a cell mass which had not been separated. Cells were suspended in the Ham F12 medium containing a N1 additive [Bottenstein, J. E., Exp. Cell. Res., 125, 183 (1980)] (kanamycin of 60 μg/ml added).
A poly-1-lysine-coating cell disc as a culture medium which had been subjected to 10 μg/ml laminin (Koken Cell Gen) coating treatment at 37° C. for 3 hours was placed on a 24 well dish and nerve cells (5000 to 10000 cells/dish) were seeded. The test compound (concentration: 0.01 mol/l) was dissolved in dimethyl sulfoxide and diluted with a phosphate buffer solution to adjust to a final concentration, and then added to a culture solution. Cells were cultured in 5% CO2 -95% air phase at 37° C. for 7 days.
For the measurement of neurite outgrowth, the cell disc was washed with a phosphate buffer solution 7 days after initiation of the culture and immobilized with 4% paraformaldehyde at 4° C. for 24 hours, and then immune staining was conducted with Vecstatin ABC kit (Vector) using a neurofilament antibody (200 kD, manufactured by Boehringer Mannheim GmbH). The periphery of the cell disc was restrictively observed under microscopy, and the amount of neurofilament (whole length per well) was evaluated by comparing with the control well according to the following criteria: positive (+), false positive (±) and negative (-).

[3] = system: hyperoxidation reaction of lipid (microsome fraction); test: Pharmacological test 3: antioxidation action, hyperoxidation reaction of lipid due to ascorbic acid induction in liver microsome fraction (TBA value); type: biochemical, Wister rat; details: 37° C., 15 minutes; 200 μM ascorbic acid, 20 μM ferrous sulfate; read-out: IC50 (antioxidation, 50% inhibition concentration)
Method: (The measurement of antioxidation action)
The antioxidation action was measured using the hyperoxidation reaction of lipid due to ascorbic acid induction [Shimada, O. and Yasuda, H. BBA489, 163-172 (1977)].
Microsome fraction was obtained from a lever of Wister rat by a Kato's method [J. Biochem., 59, 574 (1966)]. This fraction was added to a 60 mM potassium phosphate buffer solution (containing 45 mM potassium chloride, 200 μM ascorbic acid and 20 μM ferrous sulfate) in an amount of 1 mg/ml and the test compound (0.1% dimethyl sulfoxide) was added, and the mixture was incubated at 37° C. for 15 minutes. The same amount of 10% trichloroacetic acid was added and the resultant was centrifuged. A portion of the supernatant was collected and the amount of malondialdehyde due to thiobarbituric acid (TBA value) was measured [Klaassen, C. D. and Plaa, G. L. Biochem. Pharmacol., 18: 2019 (1969)]. The inhibition ratio was calculated by the following formula:
Inhibition ratio={1-(TBA value of specimen)/(TBA value of […]

C-GMP-PDE (type V) = target: T1, C-GMP-PDE (type V) (Homo sapiens, UniProt O76074); test: Pharmacological test 4: C-GMP-PDE (type V) inhibition action; type: biochemical; details: FI fraction from human blood platelet
T1 construct: from tissue; host or cells: human blood platelets (healthy adult), DEAE-cellulose fraction FI
Method: (C-GMP-PDE (type V) inhibition action)
The separation and purification of PDE from a human blood platelet was conducted according to a method of Hidaka et al. [Hidaka, H. and Asano, I., Biochem. Biophys. Acta 429, 485-497 (1976)]. That is, a blood platelet derived from a healthy adult was washed with water, floated with a Tris buffer solution and centrifuged. Then, the supernatant thereof was applied to DEAE-cellulose and separated into three fractions, FI, FII and FIII due to concentration gradient of sodium acetate. By using FI having high affinity to C-GMP, the inhibition action of the test compound was examined. The influence of the drug on PDE was represented by the inhibition ratio to PDE activity in the absence of the drug.

SMILES: C=CCc1cc(C)c2c(c1O)C(=O)c1ccccc1-2 [Example 11]
neurite sprouting (NS) ([1]; Dose 10^-5 (mole)): +

SMILES: C=CCc1cc2c(cc1O)C(=O)c1c-2ccc(CC=C)c1O [Example 14]
neurite sprouting (NS) ([1]; Dose 10^-7 (mole)): ++

SMILES: C=CCc1cc2c(c(CC=C)c1O)C(=O)c1c(O)c(CC=C)cc(CC=C)c1-2 [Example 16]
neurite sprouting (NS) ([1]; Dose 10^-7 (mole)): +

SMILES: C=CCc1c(O)ccc2c1C(=O)c1ccccc1-2 [Example 17]
neurite sprouting (NS) ([1]; Dose 10^-5 (mole)): ++
Neurite outgrowth action ([2]; Dose 10^-6 (mole)): +

SMILES: C=CCc1cc2c(cc1O)C(=O)c1ccccc1-2 [Example 18]
neurite sprouting (NS) ([1]; Dose 10^-5 (mole)): ++
Neurite outgrowth action ([2]; Dose 10^-6 (mole)): +

SMILES: C=CCc1cc2c(c(CC=C)c1O)C(=O)c1ccccc1-2 [Example 19]
neurite sprouting (NS) ([1]; Dose 10^-5 (mole)): ++
Neurite outgrowth action ([2]; Dose 10^-7 (mole)): +

SMILES: O=C1c2ccccc2-c2cc(O)c(O)cc21 [Example 20, 2,3-dihydroxyfluorenone]
Neurite outgrowth action ([2]; Dose 10^-6 (mole)): +

IC50 [3]: 100 nM
IC50 (C-GMP-PDE (type V)): 14700 nM
SMILES: C=CCc1c(O)c(O)c(CC=C)c2c1C(=O)c1ccccc1-2 [Example 21, 1,4-diallyl-2,3-dihydroxyfluorenone]
neurite sprouting (NS) ([1]; Dose 10^-7 (mole)): ++
Neurite outgrowth action ([2]; Dose 10^-7 (mole)): +

SMILES: CCCc1c(O)c(O)c(CCC)c2c1C(=O)c1ccccc1-2 [Example 22, 1,4-di-n-propyl-2,3-dihydroxyfluorenone]
Neurite outgrowth action ([2]; Dose 10^-7 (mole)): +

SMILES: O=C1c2cc(O)ccc2-c2c(O)cccc21 [Example 26]
neurite sprouting (NS) ([1]; Dose 10^-7 (mole)): +
Neurite outgrowth action ([2]; Dose 10^-7 (mole)): +

IC50 [3]: 1600 nM
IC50 (C-GMP-PDE (type V)): 8700 nM
SMILES: C=CCc1ccc2c(c1O)-c1ccc(O)c(CC=C)c1C2=O [Example 27, 1,6-Diallyl-2,5-dihydroxyfluorenone]
neurite sprouting (NS) ([1]; Dose 10^-5 (mole)): +
Neurite outgrowth action ([2]; Dose 10^-7 (mole)): +

SMILES: C=CCc1ccc(O)c2c1C(=O)c1c-2ccc(O)c1CC=C [Example 28]
neurite sprouting (NS) ([1]; Dose 10^-5 (mole)): ++

SMILES: C=CCc1cc2c(cc1O)C(=O)c1ccc(CC=C)c(O)c1-2 [Example 29]
Neurite outgrowth action ([2]; Dose 10^-7 (mole)): +

SMILES: C=CCc1cc2c(cc1O)C(=O)c1c(CC=C)ccc(O)c1-2 [Example 30]
Neurite outgrowth action ([2]; Dose 10^-7 (mole)): +

IC50 [3]: 200 nM
IC50 (C-GMP-PDE (type V)): 400 nM
SMILES: C=CCc1cc2c(c(CC=C)c1O)C(=O)c1c(CC=C)cc(CC=C)c(O)c1-2 [Example 31]
neurite sprouting (NS) ([1]; Dose 10^-7 (mole)): +
Neurite outgrowth action ([2]; Dose 10^-7 (mole)): +

SMILES: CCCc1cc2c(c(CCC)c1O)C(=O)c1c(CCC)cc(CCC)c(O)c1-2 [Example 32]
Neurite outgrowth action ([2]; Dose 3 × 10^-8 (mole)): +

SMILES: C=CCc1cc(Cl)c2c(c1O)-c1cc(Cl)c(O)c(CC=C)c1C2=O [Example 33]
Neurite outgrowth action ([2]; Dose 10^-7 (mole)): +

SMILES: C=CCc1cc(Cl)c(O)c2c1C(=O)c1c-2cc(Cl)c(O)c1CC=C [Example 34]
Neurite outgrowth action ([2]; Dose 10^-7 (mole)): +

SMILES: C=CCc1cc2c(cc1O)C(=O)c1cccc(O)c1-2 [Example 35]
neurite sprouting (NS) ([1]; Dose 10^-7 (mole)): +

SMILES: COc1cccc2c1-c1cc(C(C)C)c(O)cc1C2=O [Example 36]
Neurite outgrowth action ([2]; Dose 10^-6 (mole)): +

SMILES: O=C1c2cc(O)ccc2-c2cc(O)ccc21 [Example 40]
neurite sprouting (NS) ([1]; Dose 10^-5 (mole)): ++
Neurite outgrowth action ([2]; Dose 10^-6 (mole)): +

SMILES: C=CCc1c(O)ccc2c1C(=O)c1ccc(O)c(CC=C)c1-2 [Example 41]
Neurite outgrowth action ([2]; Dose 10^-7 (mole)): +

SMILES: C=CCc1cc2c(cc1O)-c1cc(CC=C)c(O)cc1C2=O [Example 44]
Neurite outgrowth action ([2]; Dose 10^-7 (mole)): +

SMILES: C=CCc1cc2c(c(CC=C)c1O)C(=O)c1cc(CC=C)c(O)c(CC=C)c1-2 [Example 45]
neurite sprouting (NS) ([1]; Dose 10^-7 (mole)): +
Neurite outgrowth action ([2]; Dose 10^-7 (mole)): +

SMILES: C=CCc1c(O)ccc2c1C(=O)c1c-2ccc(O)c1CC=C [Example 48]
neurite sprouting (NS) ([1]; Dose 10^-6 (mole)): +
Neurite outgrowth action ([2]; Dose 10^-7 (mole)): +

SMILES: C=CCc1cc2c(c(CC=C)c1O)C(=O)c1c-2cc(CC=C)c(O)c1CC=C [Example 50]
Neurite outgrowth action ([2]; Dose 10^-7 (mole)): +

SMILES: CCCc1cc2c(c(CCC)c1O)C(=O)c1c-2cc(CCC)c(O)c1CCC [Example 53]
Neurite outgrowth action ([2]; Dose 10^-7 (mole)): +

SMILES: CCCc1cc2c(c(Cl)c1O)C(=O)c1c-2cc(Cl)c(O)c1CCC [Example 54, 3,8-dichloro-1,6-di-n-propyl-2,7-dihydroxyfluorenone]
Neurite outgrowth action ([2]; Dose 10^-7 (mole)): +

SMILES: C=CCc1cc2c(c(CC=C)c1O)-c1ccccc1C2=O [Example 60]
neurite sprouting (NS) ([1]; Dose 10^-7 (mole)): +
Neurite outgrowth action ([2]; Dose 10^-6 (mole)): +

SMILES: C=CCc1ccc(O)c2c1C(=O)c1ccccc1-2 [Example 61]
neurite sprouting (NS) ([1]; Dose 10^-5 (mole)): ++

SMILES: C=CCc1ccc2c(c1O)-c1ccccc1C2=O [Example 62]
neurite sprouting (NS) ([1]; Dose 10^-6 (mole)): ++
Neurite outgrowth action ([2]; Dose 10^-6 (mole)): +

SMILES: CSc1ccc(O)c2c1C(=O)c1ccccc1-2 [Example 63]
Neurite outgrowth action ([2]; Dose 10^-6 (mole)): +

SMILES: C=CCc1cc(SC)c2c(c1O)-c1ccccc1C2=O [Example 64]
Neurite outgrowth action ([2]; Dose 10^-6 (mole)): +

SMILES: C=CCc1cc2c(cc1OC(C)=O)C(=O)c1c-2ccc(OC(C)=O)c1CC=C [Example 106, 1,6-diallyl-2,7-diacetoxyfluorenone]
Neurite outgrowth action ([2]; Dose 10^-7 (mole)): +

SMILES: Cc1cc2c(c(C)c1O)C(=O)c1ccc(C)c(O)c1-2 [Example 118, 1,3,6-trimethyl-2,5-dihydroxyfluorenone]
Neurite outgrowth action ([2]; Dose 3 × 10^-7 (mole)): +

SMILES: Cc1cc2c(c(C)c1O)C(=O)c1ccc(CNc3ncccn3)c(O)c1-2 [Example 123]
Neurite outgrowth action ([2]; Dose 10^-7 (mole)): +

SMILES: CCCc1ccc2c(c1O)-c1cc(CNc3ncccn3)c(O)c(CCC)c1C2=O [Example 127]
Neurite outgrowth action ([2]; Dose 10^-7 (mole)): +

SMILES: CCCc1ccc2c(c1O)-c1cc(CNC(CC(C)C)C(=O)OC)c(O)c(CCC)c1C2=O (stereo not drawn) [Example 131]
Neurite outgrowth action ([2]; Dose 10^-7 (mole)): +

SMILES: CCCc1ccc2c(c1O)-c1cc(CN3CCC[C@H]3C(=O)OC)c(O)c(CCC)c1C2=O [Example 132]
Neurite outgrowth action ([2]; Dose 10^-7 (mole)): +

SMILES: CCCc1cc2c(c(CCC)c1OC(C)=O)C(=O)c1c(CCC)cc(CCC)c(OC(C)=O)c1-2 [Example 134]
Neurite outgrowth action ([2]; Dose 3 × 10^-8 (mole)): +

SMILES: Cc1cc2c(c(C)c1O)C(=O)c1ccc(CSc3ccccc3)c(O)c1-2 [Example 136]
Neurite outgrowth action ([2]; Dose 3 × 10^-7 (mole)): +

SMILES: COc1ccc(SCc2ccc3c(c2O)-c2cc(C)c(O)c(C)c2C3=O)cc1 [Example 141]
Neurite outgrowth action ([2]; Dose 3 × 10^-8 (mole)): +

SMILES: Cc1cc2c(c(C)c1O)C(=O)c1ccc(CSC3CCCCC3)c(O)c1-2 [Example 142]
Neurite outgrowth action ([2]; Dose 3 × 10^-8 (mole)): +

SMILES: CCCc1cc2c(c(CC(C)OCCOCCO)c1O)C(=O)c1c(CCC)cc(CCC)c(O)c1-2 (stereo not drawn) [Example 143]
Neurite outgrowth action ([2]; Dose 10^-7 (mole)): +

SMILES: Cc1cc2c(c(C)c1O)C(=O)c1ccc(CC#N)c(O)c1-2 [Example 144]
Neurite outgrowth action ([2]; Dose 10^-7 (mole)): +
